Measured values reported in ChEMBL document CHEMBL1146306, “Design and synthesis of conformationally constrained tri-substituted ureas as potent antagonists of the human glucagon receptor” (Bioorg Med Chem Lett, 2007).
pIC50: −log10 of the molar value.

How the values were obtained:
Glucagon receptor [1] = target: T1, Glucagon receptor (Homo sapiens, UniProt P47871); experiment: Antagonist activity at human glucagon receptor transfected in CHO cells assessed as inhibition of glucagon-induced cAMP accumulation; assay type: functional, cell-based; conditions: for pIC50: read-out: IC50
T1 sequence (P47871 whole entry): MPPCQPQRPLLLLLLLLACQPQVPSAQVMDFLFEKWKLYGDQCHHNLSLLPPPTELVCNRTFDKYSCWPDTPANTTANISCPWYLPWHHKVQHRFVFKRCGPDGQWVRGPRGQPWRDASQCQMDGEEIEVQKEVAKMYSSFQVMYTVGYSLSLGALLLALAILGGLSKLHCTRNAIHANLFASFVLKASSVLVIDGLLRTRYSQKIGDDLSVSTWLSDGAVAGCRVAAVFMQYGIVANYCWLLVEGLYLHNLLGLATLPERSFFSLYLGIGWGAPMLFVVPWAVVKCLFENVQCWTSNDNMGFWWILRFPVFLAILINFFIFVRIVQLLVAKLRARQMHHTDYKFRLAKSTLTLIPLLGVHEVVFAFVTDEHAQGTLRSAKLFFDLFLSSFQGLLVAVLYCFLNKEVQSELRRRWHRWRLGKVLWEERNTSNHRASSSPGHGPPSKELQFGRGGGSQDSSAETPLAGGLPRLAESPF

Glucagon receptor [2] = target: T1, Glucagon receptor; experiment: Displacement of [125]glucagon from human glucagon receptor expressed in CHO cells; assay type: cell-based
[3] = target: T2, Gastric inhibitory polypeptide receptor (Homo sapiens, UniProt P48546); experiment: Antagonist activity at human GIP receptor transfected in CHO cells assessed as inhibition of […] cAMP accumulation; assay type: functional, cell-based
T2 sequence (P48546 whole entry): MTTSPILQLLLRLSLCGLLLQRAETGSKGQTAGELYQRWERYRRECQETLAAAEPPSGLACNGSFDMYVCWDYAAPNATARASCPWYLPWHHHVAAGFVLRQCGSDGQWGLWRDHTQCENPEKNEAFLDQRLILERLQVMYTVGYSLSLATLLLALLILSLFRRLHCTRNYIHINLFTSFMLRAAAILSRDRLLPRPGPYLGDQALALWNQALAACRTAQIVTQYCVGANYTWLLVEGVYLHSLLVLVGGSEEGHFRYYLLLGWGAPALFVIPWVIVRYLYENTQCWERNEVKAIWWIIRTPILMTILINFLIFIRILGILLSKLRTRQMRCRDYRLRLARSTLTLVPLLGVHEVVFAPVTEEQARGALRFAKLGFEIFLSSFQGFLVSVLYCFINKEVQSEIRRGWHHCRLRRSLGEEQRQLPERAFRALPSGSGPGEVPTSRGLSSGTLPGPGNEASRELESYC

[4] = Half life in mouse at 1 mg/kg, iv and 2 mg/kg, po; assay type: ADME, organism-based; conditions: in vivo
[5] = Cmax in mouse at 1 mg/kg, iv and 2 mg/kg, po; assay type: ADME, organism-based; conditions: in vivo
[6] = Volume of distribution at steady state in mouse at 1 mg/kg, iv and 2 mg/kg, po; assay type: ADME, organism-based; conditions: in vivo, read-out: Vdss
[7] = Bioavailability in mouse at 1 mg/kg, iv and 2 mg/kg, po; assay type: ADME, organism-based; conditions: in vivo
[8] = Plasma clearance in mouse at 1 mg/kg, iv and 2 mg/kg, po; assay type: ADME, organism-based
CHO = experiment: Selectivity for human glucagon receptor over human GIP receptor expressed in CHO cells by glucagon-stimulated cAMP accumulation assay; assay type: cell-based
Mus musculus [9] = experiment: Inhibition of glucagon-induced hyperglycemic response in transgenic mouse expressing human glucagon receptor at 30 mg/kg, po after 24 mins relative to control; assay type: functional; conditions: 0.4 h
Mus musculus [10] = experiment: Decrease in non-fasting blood glucose level in transgenic diabetic mouse expressing human glucagon receptor at 3 mg/kg, po after 10 days relative to lean control; assay type: functional; parameters: scale not given: the % may be the effect or the level left
Mus musculus [11] = experiment: Decrease in non-fasting blood glucose level in transgenic diabetic mouse expressing human glucagon receptor at 3 mg/kg, po after 3 days relative to lean control; assay type: functional; parameters: scale not given: the % may be the effect or the level left
Mus musculus [12] = experiment: Inhibition of glucagon-induced hyperglycemic response in transgenic mouse expressing human glucagon receptor at 10 mg/kg, po after 24 mins relative to control; assay type: functional; conditions: 0.4 h
Mus musculus [13] = experiment: Decrease in non-fasting blood glucose level in transgenic diabetic mouse expressing human glucagon receptor at 10 mg/kg, po after 10 days relative to lean control; assay type: functional; parameters: scale not given: the % may be the effect or the level left
Mus musculus [14] = experiment: Decrease in non-fasting blood glucose level in transgenic diabetic mouse expressing human glucagon receptor at 10 mg/kg, po after 3 days relative to lean control; assay type: functional; parameters: scale not given: the % may be the effect or the level left
Mus musculus [15] = experiment: Inhibition of glucagon-induced hyperglycemic response in transgenic mouse expressing human glucagon receptor at 3 mg/kg, po after 24 mins relative to control; assay type: functional; conditions: 0.4 h

pIC50 (Glucagon receptor [1])	pIC50 (Glucagon receptor [2])	pIC50 [3]	Compound	also measured
–	–	6.88	CC(C)(C)[C@H]1CC[C@H](N(C(=O)Nc2ccc(OC(F)(F)F)cc2)C2CCc3cc(C(=O)NCCC(=O)O)ccc32)CC1 (stereo not given in full)	inhibition in vivo at 30 mg/kg (Mus musculus [9]): 122%; Activity (Mus musculus [10]): 87%; half-life [4]: 5.6 h; Activity (Mus musculus [11]): 72%; inhibition in vivo at 10 mg/kg (Mus musculus [12]): 59%; Cmax [5]: 130 nM; Vd [6]: 1.6 L/kg; bioavailability [7]: 17%; clearance [8]: 9 mL/min/kg; Activity (Mus musculus [13]): 106%; Activity (Mus musculus [14]): 99%; inhibition in vivo at 3 mg/kg (Mus musculus [15]): 51%
6.72	7.17	–	O=C(O)CCNC(=O)c1ccc2c(c1)CCC2N(C(=O)Nc1ccc(OC(F)(F)F)cc1)c1ccc(C2CCCCC2)cc1 (stereo not given)	–
7.34	8.42	6.22	CC(C)(C)[C@H]1CC[C@@H](N(C(=O)Nc2ccc(OC(F)(F)F)cc2)C2CCc3cc(C(=O)NCCC(=O)O)ccc32)CC1 (single isomer, unassigned)	–
5.56	6.89	–	CC(C)(C)[C@H]1CC[C@H](N(C(=O)c2ccc(OC(F)(F)F)cc2)C2CCc3cc(C(=O)NCCC(=O)O)ccc32)CC1 (stereo not given in full)	–
–	5.47	–	CC(C)(C)[C@H]1CC[C@@H](N(C(=O)Nc2ccc(OC(F)(F)F)cc2)C2CCc3cc(C(=O)NCCC(=O)O)ccc32)CC1 (stereo not given in full)	–
6.30	7.74	6.54	CC(C)(C)[C@H]1CC[C@H](N(C(=O)Cc2ccc(OC(F)(F)F)cc2)C2CCc3cc(C(=O)NCCC(=O)O)ccc32)CC1 (stereo not given in full)	–
7.07	7.66	–	O=C(Nc1nn[nH]n1)c1ccc2c(c1)CCC2N(C(=O)Nc1ccc(OC(F)(F)F)cc1)c1ccc(C2CCCCC2)cc1 (stereo not given)	–
–	6.09	–	O=C(O)CCNC(=O)c1ccc2c(c1)CCC2N(C(=O)Nc1ccc(OC(F)(F)F)cc1)c1ccc(OC(F)(F)F)cc1 (stereo not given)	IC50 (Glucagon receptor [1]; cho): Not Active

More lines, now with the values behind:

Compound	pIC50 (Glucagon receptor [1])	pIC50 (Glucagon receptor [2])	pIC50 [3]	also measured
CC(C)(C)[C@H]1CC[C@@H](N(C(=O)Nc2ccc(OC(F)(F)F)cc2)C2CCc3cc(C(=O)Nc4nn[nH]n4)ccc32)CC1 (stereo not given in full)	6.10	6.67	–	–
CC(C)(C)[C@H]1CC[C@H](N(C(=O)c2ccc(OC(F)(F)F)cc2)C2CCc3cc(C(=O)Nc4nnn[nH]4)ccc32)CC1 (stereo not given in full)	5.83	7.31	6.21	–
CC(C)(C)[C@H]1CC[C@H](N(C(=O)Nc2ccc(OC(F)(F)F)cc2)C2CCc3cc(C(=O)Nc4nn[nH]n4)ccc32)CC1 (stereo not given in full)	–	–	6.53	–
CC(C)(C)[C@H]1CC[C@H](N(C(=O)Cc2ccc(OC(F)(F)F)cc2)C2CCc3cc(C(=O)Nc4nnn[nH]4)ccc32)CC1 (stereo not given in full)	7.17	8.32	6.93	–
CC(C)(C)[C@H]1CC[C@@H](N(C(=O)Nc2ccc(OC(F)(F)F)cc2)C2CCc3cc(C(=O)Nc4nn[nH]n4)ccc32)CC1 (single isomer, unassigned)	7.74	9.00	6.36	–
CC(C)(C)[C@H]1CC[C@H](N(C(=O)Nc2ccc(OC(F)(F)F)cc2)C2CCOc3cc(C(=O)Nc4nn[nH]n4)ccc32)CC1 (stereo not given in full)	–	–	6.93	–
O=C(Nc1nnn[nH]1)c1ccc2c(c1)CCC2N(C(=O)Nc1ccc(OC(F)(F)F)cc1)c1ccc(OC(F)(F)F)cc1 (stereo not given)	5.46	7.21	–	–
CC(C)(C)[C@H]1CC[C@H](N(C(=O)Nc2cc(C(F)(F)F)cc(C(F)(F)F)c2)C2CCc3cc(C(=O)NCCC(=O)O)ccc32)CC1 (stereo not given in full)	7.34	7.55	5.69	–
CC(C)(C)[C@H]1CC[C@H](N(C(=O)Nc2ccc(OC(F)(F)F)cc2)C2CCOc3cc(C(=O)NCCC(=O)O)ccc32)CC1 (stereo not given in full)	–	–	6.66	half-life [4]: 3.4 h; Cmax [5]: 60 nM; Vd [6]: 1.4 L/kg; bioavailability [7]: 15%; clearance [8]: 13 mL/min/kg
CC(C)(C)[C@H]1CC[C@H](N(C(=O)Nc2cc(Cl)cc(Cl)c2)C2CCc3cc(C(=O)Nc4nn[nH]n4)ccc32)CC1 (stereo not given in full)	8.23	8.31	5.45	Fold change (CHO): > 500
CC(C)(C)[C@H]1CC[C@H](N(C(=O)Nc2cc(Cl)cc(Cl)c2)C2CCc3cc(C(=O)NCCC(=O)O)ccc32)CC1 (stereo not given in full)	7.96	8.00	5.89	Fold change (CHO): > 100
CC(C)(C)[C@H]1CC[C@H](N(C(=O)Nc2cc(C(F)(F)F)cc(C(F)(F)F)c2)C2CCc3cc(C(=O)Nc4nnn[nH]4)ccc32)CC1 (stereo not given in full)	7.21	8.12	5.37	–
CC(C)(C)[C@H]1CC[C@H](N(C(=O)Nc2ccc(OC(F)(F)F)cc2)C2CCCc3cc(C(=O)Nc4nn[nH]n4)ccc32)CC1 (stereo not given in full)	–	–	6.75	half-life [4]: 8 h; Cmax [5]: 40 nM; Vd [6]: 1.4 L/kg; bioavailability [7]: 1.4%; clearance [8]: 6.4 mL/min/kg
CC(C)(C)[C@H]1CC[C@H](N(C(=O)Nc2ccc(OC(F)(F)F)cc2)C2CCCc3cc(C(=O)NCCC(=O)O)ccc32)CC1 (stereo not given in full)	–	–	6.77	half-life [4]: 2.5 h; Cmax [5]: 90 nM; Vd [6]: 0.9 L/kg; bioavailability [7]: 10%; clearance [8]: 9 mL/min/kg
